Source: US20250002507A1, “7,8-DIHYDRO-5H-1,6-NAPHTHYRIDINE DERIVATIVES AS POSITIVE ALLOSTERIC MODULATORS OF THE MUSCARINIC ACETYLCHOLINE RECEPTOR M4 FOR TREATING NEUROLOGICAL AND PSYCHIATRIC DISORDERS” (Vanderbilt University, priority 2021, published 2025)
Where two headings read alike, the source gives them in different places.

What was measured:
patients = patients treated with AChE inhibitor; cited from earlier work
Human M4 = target: T1, Human M4 (Homo sapiens, UniProt P08173); assay: mAChR M4 cell-based functional assay (calcium flux, potentiation of EC20 acetylcholine response), hM4-Gqi5 CHO-K1 cells; settings: for Emax at 30 µM: % ACh maximum at 30 μM; for EC50: calcium flux, read-out: Human M4 EC50
T1 construct: expressed in transfected cells
T1 sequence (P08173 1-479): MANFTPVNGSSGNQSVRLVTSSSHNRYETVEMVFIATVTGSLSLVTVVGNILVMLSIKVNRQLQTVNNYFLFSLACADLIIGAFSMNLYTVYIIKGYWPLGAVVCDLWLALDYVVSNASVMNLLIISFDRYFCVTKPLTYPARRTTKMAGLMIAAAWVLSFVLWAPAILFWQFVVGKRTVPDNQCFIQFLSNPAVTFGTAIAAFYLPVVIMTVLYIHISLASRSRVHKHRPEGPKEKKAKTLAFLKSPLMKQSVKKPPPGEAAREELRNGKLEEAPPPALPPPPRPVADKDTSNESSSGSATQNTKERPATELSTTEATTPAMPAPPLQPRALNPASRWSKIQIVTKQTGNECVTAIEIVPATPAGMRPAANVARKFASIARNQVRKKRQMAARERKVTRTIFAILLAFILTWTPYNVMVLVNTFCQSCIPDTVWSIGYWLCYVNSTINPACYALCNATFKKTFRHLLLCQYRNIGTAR
In short: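 CHO-K1 cells stably expressing human M4 with chimeric Gqi5, loaded with Fluo-4 AM 50 min at 37 °C; calcium flux read by FDSS. 11-point 1:3 compound curves added, then EC20 acetylcholine at 144 s; potentiation of the EC20 response fitted by four-parameter logistic to give EC50 and Emax.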

[1] = CHO-K1, human M4, read-out: Emax
[2] = hM4-Gqi5 CHO-K1 cells, PAM of EC20 acetylcholine
[3] = CHO-K1, Table 3, Human M4, read-out: Emax (% ACh maximum at 30 μM)
[4] = Table 3, potentiation of EC20 acetylcholine response, CHO-K1 cells
[5] = CHO-K1, Table 4, Human M4, read-out: Emax (% ACh maximum at 30 μM)
[6] = Table 4, potentiation of EC20 acetylcholine response, CHO-K1 cells

Row | SMILES | Emax at 30 µM (Human M4; [1]) [%] | EC50 (Human M4; [2]) [µM] | other results
1 | Nc1c2c(nc3ccccc13)CCCC2 [tacrine] |  |  | elevated liver transaminases, share of patients (patients): about 30%
2 | Cc1noc(C)c1-c1cnc2c(c1)CN(c1nn3c(C)nnc3c(C)c1C)CC2 [Compound 86, 3,5-dimethyl-4-[6-(3,7,8-trimethyl-[1,2,4]triazolo[4,3-b]pyridazin-6-yl)-7,8-dihydro-5H-1,6-naphthyridin-3-yl]isoxazole] | 84 | 0.227 | 
3 | Cc1c(N2CCc3ncc(N4CCC5OCCCC5C4)cc3C2)nn2c(C(F)(F)F)nnc2c1C (centres unmarked) [Compound 273, 6-(6-(7,8-dimethyl-3-(trifluoromethyl)-[1,2,4]triazolo[4,3-b]pyridazin-6-yl)-5,6,7,8-tetrahydro-1,6-naphthyridin-3-yl)octahydro-2H-pyrano[3,2-c]pyridine] |  |  | Emax at 30 µM (Human M4; [3]): 83%; EC50 (Human M4; [4]): 0.816 µM
4 | Cc1cnc2c(c1)CN(c1nn3cc(C(=O)N4CCCCC4)nc3cc1C)CC2 [Compound 170, (7-methyl-6-(3-methyl-7,8-dihydro-1,6-naphthyridin-6(5H)-yl)imidazo[1,2-b]pyridazin-2-yl)(piperidin-1-yl)methanone] |  |  | Emax at 30 µM (Human M4; [3]): 105%; EC50 (Human M4; [4]): 0.934 µM
5 | Cc1c(N2CCc3ncc(Oc4ccc(OC(F)(F)F)c(F)c4)cc3C2)nn2cnnc2c1C [Compound 6, 6-(7,8-dimethyl-[1,2,4]triazolo[4,3-b]pyridazin-6-yl)-3-[3-fluoro-4-(trifluoromethoxy)phenoxy]-7,8-dihydro-5H-1,6-naphthyridine] | 33 | 3.62 | 
6 | Cc1cc2nncn2nc1N1CCc2ncccc2C1 [Compound 151, 6-(7-methyl-[1,2,4]triazolo[4,3-b]pyridazin-6-yl)-7,8-dihydro-5H-1,6-naphthyridine] |  |  | Emax (Human M4; CHO-K1): 93%
7 | Cc1c(N2CCc3ncc(C(C)C)cc3C2)nn2cnnc2c1C [Compound 218, 6-(7,8-dimethyl-[1,2,4]triazolo[4,3-b]pyridazin-6-yl)-3-isopropyl-5,6,7,8-tetrahydro-1,6-naphthyridine] |  |  | Emax at 30 µM (Human M4; [3]): 89%; EC50 (Human M4; [4]): 0.186 µM
8 | Cc1c(N2CCc3ncc(Nc4cc(F)ccc4F)cc3C2)nn2cnnc2c1C [Compound 32, N-(2,5-difluorophenyl)-6-(7,8-dimethyl-[1,2,4]triazolo[4,3-b]pyridazin-6-yl)-7,8-dihydro-5H-1,6-naphthyridin-3-amine] | 102 | 0.0848 | 
9 | Cc1ccc(Nc2cnc3c(c2)CN(c2nn4cnnc4c(C)c2C)CC3)c(F)c1 [Compound 48, 6-(7,8-dimethyl-[1,2,4]triazolo[4,3-b]pyridazin-6-yl)-N-(2-fluoro-4-methyl-phenyl)-7,8-dihydro-5H-1,6-naphthyridin-3-amine] | 80 | 0.147 | 
10 | Cc1c(N2CCc3ncc(-c4cnn(C)c4)cc3C2)nn2cnnc2c1C [Compound 112, 6-(7,8-dimethyl-[1,2,4]triazolo[4,3-b]pyridazin-6-yl)-3-(1-methylpyrazol-4-yl)-7,8-dihydro-5H-1,6-naphthyridine] | 101 | 0.124 | 
11 | Cc1c(N2CCc3ncc(Nc4ncccc4F)cc3C2)nn2cnnc2c1C [Compound 80, 6-(7,8-dimethyl-[1,2,4]triazolo[4,3-b]pyridazin-6-yl)-N-(3-fluoro-2-pyridyl)-7,8-dihydro-5H-1,6-naphthyridin-3-amine] | 72 | 0.176 | 
12 | Cc1c(N2CCc3ncc(N4CCCn5nccc54)cc3C2)nn2c(Cl)nnc2c1C [Compound 284, 6-(3-chloro-7,8-dimethyl-[1,2,4]triazolo[4,3-b]pyridazin-6-yl)-3-(6,7-dihydropyrazolo[1,5-a]pyrimidin-4(5H)-yl)-5,6,7,8-tetrahydro-1,6-naphthyridine] |  |  | Emax at 30 µM (Human M4; [3]): 53%; EC50 (Human M4; [4]): 0.545 µM
13 | Cc1cc(-c2cnc3c(c2)CN(c2nn4cnnc4c(C)c2C)CC3)cc(Cl)n1 [Compound 35, 3-(2-chloro-6-methyl-4-pyridyl)-6-(7,8-dimethyl-[1,2,4]triazolo[4,3-b]pyridazin-6-yl)-7,8-dihydro-5H-1,6-naphthyridine] | 78 | 1.9 | 
14 | Cc1c(N2CCc3ncc(Nc4cc(F)cc(F)c4F)cc3C2)nn2cnnc2c1C [Compound 30, 6-(7,8-dimethyl-[1,2,4]triazolo[4,3-b]pyridazin-6-yl)-N-(2,3,5-trifluorophenyl)-7,8-dihydro-5H-1,6-naphthyridin-3-amine] | 94 | 0.12 | 
15 | Cc1c(N2CCc3ncc(Nc4cc(F)ccc4F)cc3C2)nn2c(C)nnc2c1C [Compound 84, N-(2,5-difluorophenyl)-6-(3,7,8-trimethyl-[1,2,4]triazolo[4,3-b]pyridazin-6-yl)-7,8-dihydro-5H-1,6-naphthyridin-3-amine] | 99 | 0.21 | 
16 | Cc1c(N2CCc3ncc(-c4ccc(N5CCOCC5)cc4)cc3C2)nn2cnnc2c1C [Compound 223, 4-(4-(6-(7,8-dimethyl-[1,2,4]triazolo[4,3-b]pyridazin-6-yl)-5,6,7,8-tetrahydro-1,6-naphthyridin-3-yl)phenyl)morpholine] |  |  | Emax at 30 µM (Human M4; [3]): 95%; EC50 (Human M4; [4]): 0.329 µM
17 | Cc1c(N2CCc3ncc(OCC(F)(F)F)cc3C2)nn2cnnc2c1C [Compound 305, 6-(7,8-dimethyl-[1,2,4]triazolo[4,3-b]pyridazin-6-yl)-3-(2,2,2-trifluoroethoxy)-5,6,7,8-tetrahydro-1,6-naphthyridine] |  |  | Emax at 30 µM (Human M4; [5]): 112%; EC50 (Human M4; [6]): 1.87 µM
18 | [2H]C1([2H])Cc2ncc(Nc3ccncc3F)cc2C([2H])([2H])N1c1nn2cnnc2cc1C [Compound 355, N-(3-Fluoropyridin-4-yl)-6-(7-methyl-1,2,4[triazolo 4,3-b]pyridazin-6-yl)-5,6,7,8-tetrahydro-1,6-naphthyridin-5,5,7,7-d4-3-amine] |  |  | Emax at 30 µM (Human M4; [5]): 94%; EC50 (Human M4; [6]): 0.014 µM
19 | COc1cnc(Cl)c(-c2cnc3c(c2)CN(c2nn4c(C(F)(F)F)nnc4c(C)c2C)CC3)c1 [Compound 239, 3-(2-chloro-5-methoxypyridin-3-yl)-6-(7,8-dimethyl-3-(trifluoromethyl)-[1,2,4]triazolo[4,3-b]pyridazin-6-yl)-5,6,7,8-tetrahydro-1,6-naphthyridine] |  |  | Emax at 30 µM (Human M4; [3]): 57%; EC50 (Human M4; [4]): 0.613 µM
20 | Cc1nc(C)c(-c2cnc3c(c2)CN(c2nn4cnnc4cc2C)CC3)s1 [Compound 195, 2,4-dimethyl-5-(6-(7-methyl-[1,2,4]triazolo[4,3-b]pyridazin-6-yl)-5,6,7,8-tetrahydro-1,6-naphthyridin-3-yl)thiazole] |  |  | Emax at 30 µM (Human M4; [3]): 89%; EC50 (Human M4; [4]): 0.2 µM
21 | Cc1noc(C)c1-c1cnc2c(c1)CN(c1nn3cnnc3c(C)c1C)CC2 [Compound 10, 4-[6-(7,8-dimethyl-[1,2,4]triazolo[4,3-b]pyridazin-6-yl)-7,8-dihydro-5H-1,6-naphthyridin-3-yl]-3,5-dimethyl-isoxazole] | 78 | 0.212 | 
22 | Cc1ccc(-c2cnc3c(c2)CN(c2nn4cnnc4c(C)c2C)CC3)cn1 [Compound 39, 6-(7,8-dimethyl-[1,2,4]triazolo[4,3-b]pyridazin-6-yl)-3-(6-methyl-3-pyridyl)-7,8-dihydro-5H-1,6-naphthyridine] | 95 | 0.115 | 
23 | Cc1cc(Nc2cnc3c(c2)CN(c2nn4cnnc4c(C)c2C)CC3)c(F)cn1 [Compound 363, 6-(7,8-dimethyl-[1,2,4]triazolo[4,3-b]pyridazin-6-yl)-N-(5-fluoro-2-methylpyridin-4-yl)-5,6,7,8-tetrahydro-1,6-naphthyridin-3-amine] |  |  | Emax at 30 µM (Human M4; [5]): 93%; EC50 (Human M4; [6]): 0.026 µM
24 | Cc1c(N2CCc3ncc(C(=O)N4CC(F)C4)cc3C2)nn2cnnc2c1C [Compound 117, [6-(7,8-dimethyl-[1,2,4]triazolo[4,3-b]pyridazin-6-yl)-7,8-dihydro-5H-1,6-naphthyridin-3-yl]-(3-fluoroazetidin-1-yl)methanone] | 67 |  | 
25 | Cc1cnc2c(c1)CN(c1nn3cc(C(=O)N4CCCC4)nc3cc1C)CC2 [Compound 171, [7-Methyl-6-(3-methyl-7,8-dihydro-5H-1,6-naphthyridin-6-yl)imidazo[1,2-b]pyridazin-2-yl]-pyrrolidin-1-yl-methanone] |  |  | Emax at 30 µM (Human M4; [3]): 107%; EC50 (Human M4; [4]): 1.04 µM

Further lines, with some results ahead:

Row | Emax at 30 µM (Human M4; [1]) [%] | EC50 (Human M4; [2]) [µM] | SMILES | other results
26 | 99 | 0.707 | Cc1c(N2CCc3ncc(C(=O)NCc4cncs4)cc3C2)nn2cnnc2c1C [Compound 118, 6-(7,8-Dimethyl-[1,2,4]triazolo[4,3-b]pyridazin-6-yl)-N-(thiazol-5-ylmethyl)-7,8-dihydro-5H-1,6-naphthyridine-3-carboxamide] | 
27 | 93 |  | CCn1ccc(-c2cnc3c(c2)CN(c2nn4cnnc4cc2C)CC3)n1 [Compound 130, 3-(1-ethylpyrazol-3-yl)-6-(7-methyl-[1,2,4]triazolo[4,3-b]pyridazin-6-yl)-7,8-dihydro-5H-1,6-naphthyridine] | 
